Values joined by “and” are separate entries in the source; they are usually repeats but may differ in a detail not shown here. Identical values can stand only once.
System: TUBO tumor cells
Test: Subcutaneous TUBO tumor growth in BALB-neuT mice
Format: in vivo
Design: key to Subcutaneous tumor volumes: tumor volume in mm3
Conditions: for Subcutaneous tumor volumes: BALB-neuT mice, individual animals, with control vaccine and isotype control monoclonal antibody, listed as IDO1 inhibitor, in mm³
Method: BALB-neuT mice were implanted on study day 0 with TUBO tumor cells by subcutaneous injection. Mice were dosed with 200 mg/Kg of 3-(5-fluoro-1H-indol-3-yl)pyrrolidine-2,5-dione (IDO1 inhibitor) or vehicle twice daily from study day 7 using oral gavage. Comparator groups were sham dosed with vehicle from study day 7 onwards. Appropriated mice were immunized on study day 10 with 1e10 Viral Particles of an adenovirus vector engineered to express rat HER2 (rHER2) (rHER2 vaccine) or vector lacking the rHER2 transgene (control vaccine), by intramuscular injection. Subsequently, 250 ug of an anti-CTLA4 antibody (murine monoclonal antibody to CTLA-4, clone 9D9) or an IgG2 isotype control monoclonal antibody was injected subcutaneously in close proximity to lymph nodes draining the site of adenovirus vector injection. Every two weeks thereafter, mice were immunized with 100 ug of a DNA plasmid encoding rHER2 (rHER2 vaccine) or a DNA plasmid lacking the rHER2 transgene (control vaccine) by electroporation. Subsequent to the DNA plasmid administration, 250 ug of the anti-CTLA4 antibody was injected subcutaneously in close proximity to lymph nodes draining the site of DNA plasmid injection. To track tumor progression, subcutaneous tumor volumes were measured twice a week throughout the study. Animals with subcutaneous tumor volumes that reached 2000 mm3 or displaying irreversible signs of disease were euthanized.

O=C1CC(c2c[nH]c3ccc(F)cc23)C(=O)N1 (stereo not drawn) [001 inhibitor, 3-(5-fluoro-1H-indol-3-yl)pyrrolidine-2,5-dione]
tumor growth rates (subcutaneous tumor volumes), in words (BALB-neuT mice with TUBO tumors, IDO1 inhibitor 200 mg/Kg twice daily oral, anti-CTLA4 250 ug s.c., rHER2 adenovirus then DNA): No effect on tumor growth rates | Subcutaneous tumor volumes (Study Day 18): 87.17 and 43.33 and 77.07 and 67.44 and 136.82 and 73.84 and 62.25 and 84.25 and 115.90 and 47.77 and 40.28 and 81.38 and 130.43 | Subcutaneous tumor volumes (Study Day 21): 91.03 and 64.93 and 113.76 and 113.10 and 163.91 and 75.81 and 78.22 and 89.04 and 182.85 and 58.23 and 54.88 and 135.90 and 127.97 | Subcutaneous tumor volumes (Study Day 24): 161.46 and 92.35 and 169.45 and 127.09 and 198.49 and 100.08 and 101.79 and 140.26 and 284.27 and 88.35 and 55.22 and 110.30 and 155.81 | Subcutaneous tumor volumes (Study Day 27): 163.11 and 110.42 and 171.37 and 129.44 and 240.05 and 125.82 and 123.19 and 186.49 and 361.01 and 112.48 and 80.13 and 147.33 and 241.15 | Subcutaneous tumor volumes (Study Day 32): 252.04 and 173.28 and 301.94 and 202.21 and 337.79 and 251.57 and 194.14 and 275.98 and 541.91 and 153.38 and 110.90 and 184.76 and 321.37 | Subcutaneous tumor volumes (Study Day 35): 324.53 and 260.28 and 306.58 and 377.96 and 401.70 and 262.56 and 246.60 and 364.82 and 598.92 and 209.97 and 141.15 and 244.33 and 521.30 | Subcutaneous tumor volumes (Study Day 39): 414.72 and 343.13 and 512.15 and 430.30 and 596.09 and 434.13 and 389.39 and 471.60 and 671.98 and 338.06 and 192.15 and 328.32 and 572.30 | Subcutaneous tumor volumes (Study Day 42): 603.00 and 408.33 and 574.86 and 574.25 and 680.54 and 551.64 and 463.99 and 601.50 and 820.44

— patent US10251944B2, “Cancer vaccines” (Pfizer Inc., priority 2016, dated 2019)
